According to EPA's ToxValDB 9.5 (doi:10.2903/j.efsa.2016.4452):

How the values were obtained:
Canidae = details: chronic; duration: 1 years; oral; Dog Other; organ weight
Aphidius rhopalosiphi = assay: LR50; higher = less toxic; details: not reported; mortality
Oryctolagus sp. = details: reproduction developmental; no effects
Pimephales promelas = details: chronic/long-term; duration: 28 days; reproduction
Bibionidae = details: chronic/long-term; duration: 28 days; reproduction
Apis mellifera = details: acute, mortality
Folsomia candida = details: chronic/long-term; duration: 28 days
Colinus virginianus = details: acute, oral, diet, mortality
Anas platyrhynchos = details: reproductive; duration: 20 weeks; oral; feed; M
Lepomis macrochirus = details: acute; duration: 96 hours; mortality
Daphnia magna = details: chronic/long-term; duration: 21 days; reproduction

Structure (SMILES)	LOAEL (Canidae)	LR50 (Aphidius rhopalosiphi)	LD50 (Rattus norvegicus; acute, oral, mortality)	NOAEL (Rattus norvegicus; reproduction developmental, no effects)	LC50 (Tagia sp.; acute, duration: 14 days, mortality)	NOEC (Tagia sp.; chronic/long-term, duration: 56 days)	NOAEL (Oryctolagus sp.)	NOEC (Pimephales promelas)	NOEC (Bibionidae)	LD50 (Apis mellifera; dermal)	LD50 (Apis mellifera; oral, unspecified)	NOEC (Folsomia candida)	LD50 (Colinus virginianus; duration: 8 days)	LD50 (Colinus virginianus; duration: 14 days)	NOAEL (Anas platyrhynchos)	LC50 (Lepomis macrochirus)	NOEC (Daphnia magna)
O=c1[nH]c(-c2cc(Br)nn2-c2ncccc2Cl)nc2c(Br)cc(Cl)cc12 [Cyclaniliprole metabolite (NSY-28)]	1.29 mg/kg-day																
CC(NC(=O)c1cc(Cl)cc(Br)c1NC(=O)c1cc(Br)nn1-c1ncccc1Cl)C1CC1 (stereo not drawn) [Cyclaniliprole]	1.29 mg/kg-day	0.507 g/ha	> 2000 mg/kg-day	1000 mg/kg-day	> 500 mg/kg	500 mg/kg	1000 mg/kg-day	0.2 mg/L	0.061 mg/kg	0.486 µg/piece	0.194 µg/piece	1.25 mg/kg	> 1000 mg/kg-day	> 2000 mg/kg-day	2.7 mg/kg-day	> 0.15 µg/mL	0.015 mg/L
